What is called Km is the concentration of substrate that gives half-maximal velocity.

Data on one molecule can be found in article PMC9837997, “Purification, Characterization and anticancer activity of L-methionine γ-lyase from thermo-tolerant Aspergillus fumigatus” (Microbial Cell Factories, 2023).

For the assay, the system named is T1, L-methionine γ-lyase (MGL); A. fumigatus L-methioninase.
T1 construct: native extracellular enzyme purified from culture supernatant (heat treatment, Sephadex G-100); about 46 kDa on SDS-PAGE; homodimer
As to the kind of experiment: DTNB assay of released methanethiol at […] nm, Lineweaver-Burk plot. It counts as biochemical, Aspergillus fumigatus. Conditions: 0.05 M potassium phosphate pH 7.0, 0.01 mM PLP, 0.25 mM DTNB, 30 °C; read-out: apparent Km.

`CSCC[C@H](N)C(=O)O` [L-methionine]: the Km was 20.6 mM.
